# Experimental data reported in US20110144188A1, “SALTS OF T[…] N-[…] TRIMEBUTINE” (Antibe Therapeutics Inc., priority 2006, published 2011).
# Assays:
# [1] = system: rat model of visceral pain perception; assay: Rat model of visceral pain perception (colorectal distension, AWR score and colorectal pressure); assay type: in vivo
# Method: A rat model of visceral pain perception, a pre-clinical model of irritable bowel syndrome, was used in the following example. Rats (male, Wistar, 200-250 g, obtained from Charles River, Monza, Italy), were housed in plastic cages and maintained under controlled conditions with 12-hours light/dark cycle with lights on at 7.00 AM. Tap water and standard laboratory chow were freely available. Before experiments, rats were individually trained by spending 2-3 hours per day in a plexiglass cage for 2-3 days. It allowed them to adjust to a movement-restriction environment. Food was withheld for 12 hours before colorectal distension (CRD) recording were performed. Experiments were performed in awake rats and were conducted in a blind manner in that the observer was not aware of the identity of drug administered to each animal.
# On the testing day, rats were sedated with ether inhalation and a 2 cm long latex balloon was inserted intrarectally 2 cm from the anal verge and fixed at the base of the tail. The balloon was connected via a double-barreled cannula to a pressure transducer to continuously monitoring the rectal pressure by a computer (PowerLab PC, A.D. Instruments, Milford, Mass., USA) and to a syringe for inflation/deflation of the balloon. The rats were then housed in a small cage (20×8×8 cm) on an elevated Plexiglas™ platform and allowed to wake up and adapt for 1 hour. After recovery from sedation, animals underwent the CRD procedure and behavioral responses were tested. The night before the experiments, the balloons were inflated and left overnight so the latex stretched and the balloons became compliant.
# CRD of 20 seconds, performed every 5 minutes, was applied in increment of 0.4 ml starting from 0.4 ml up to 1.6 ml water. To achieve an accurate measurement of the colonic parameters and perception, the distensions were repeated twice for each intensity and data for each animal were averaged for analysis. Each animal underwent a double set of CRD. Twenty minutes after the first sequence of CRD (0.4 mL-1.6 ml water), drugs were administered intraperitoneally (i.p.) and a second set of CRD was performed. Behavioral responses during the first and the second set of CRD were assessed and compared.
# Behavioral response to CRD was assessed by measuring the abdominal withdrawal reflex (AWR) using a semi-quantitative score (1).
# The effects of trimebutine maleate, nitroarginine and trimebutine nitroargininate on colonic compliance and sensitivity were determined using a total of 15 fasting rats. […]
# To determine the effect of trimebutine maleate, nitroarginine and trimebutine nitroargininate on colonic smooth muscle, the compliance of the colo-rectum during CRD was obtained from intracolo-rectal volume and pressure and expressed as mL/mmHg. […]
# [2] = system: abdominal pain in patients with functional bowel disorders; settings: especially IBS, 300 to 600 mg/day; cited from earlier work
compound,measurement,setting,value
CCC(COC(=O)c1cc(OC)c(OC)c(OC)c1)(c1ccccc1)N(C)C.N=C(NCCC[C@H](N)C(=O)O)N[N+](=O)[O-] (stereo not drawn) [trimebutine nitroargininate],reducing visceral pain in response to colorectal distension (AWR score),"[1]; Wistar rats, 16 mg/kg i.p., vs trimebutine maleate 10 mg/kg i.p. and nitroarginine 6 mg/kg, FIGS. 1(a), 2(a), 3(a)",more effective than either trimebutine maleate or nitroarginine
same,visceral analgesic effects (AWR score) after pretreatment with L-NAME,"[1]; rats, 16 mg/kg i.p., L-NAME 25 mg/kg i.v. 10 min before, FIG. 4(a)",largely abolished
same,visceral analgesic effects (AWR score) after pretreatment with methylene blue,"[1]; rats, 16 mg/kg i.p., methylene blue 1 mg/kg i.p. 10 min before, FIG. 4(b)",largely abolished
NC(=S)c1ccc(C(=O)O)cc1,melting point,,296 to 298 °C (dec.)
"CCC(COC(=O)c1cc(OC)c(OC)c(OC)c1)(c1ccccc1)N(C)C.NC(=S)c1ccc(C(=O)O)cc1 (stereo not drawn) [trimebutine thiocarbamoylbenzoate, 3,4,5-trimethoxybenzoic acid 2-(dimethylamino)-2-phenylbutyl ester 4-thiocarbamoyl benzoate]",reducing visceral pain in response to colorectal distension (AWR score),"[1]; rats, dose equimolar to trimebutine maleate 10 mg/kg, vs trimebutine maleate and thiocarbamoylbenzoate alone, FIGS. 5(a), 5(b)",more effective than either trimebutine maleate or thiocarbamoylbenzoate
"CCC(COC(=O)c1cc(OC)c(OC)c(OC)c1)(c1ccccc1)N(C)C (stereo not drawn) [Trimebutine, 3,4,5-trimethoxybenzoic acid 2-(dimethylamino)-2-phenylbutylester]",treatment of abdominal pain in patients,[2],effective in the treatment of both acute and chronic abdominal pain
